Results as given in patent publication US9126941B2, “Treatment of hyperproliferative disorders with diarylhydantoin compounds” (The Regents of the University of California, priority 2005, dated 2015).
Read-outs that look alike come from different tables or passages of the source.

How the values were obtained:
AR [1] = target: T1, AR (Homo sapiens, UniProt P10275); assay: cell-based; format: cell-based; conditions: for PSA levels of LN-AR cells (FIG. 21): doses of 100, 200, 500 and 1000 nM; for Rank order, most active to least active, relative PSA level (FIG. 4): 500 nM; for Decrease in PSA level of LNCaP-AR cells, comparison (FIG. 4): at concentrations of 1000 nM
Experimental: It is well established that PSA levels are indicators of AR activities in prostate cancer. […] The LNCaP-AR cells are a line of lymph node carcinoma of prostate cells transduced with a plasmid that makes express androgen receptors. […] After four days incubation, secreted PSA levels were assayed using PSA ELISA kits (American Qualex, San Clemente, Calif.)

AR [2] = target: T1, AR; assay: cell-based; format: cell-based; conditions: for Rank order, most active to least active, relative luciferase activity (FIG. 3): 500 nM
Experimental: The compounds were subjected to tests using an artificial AR response reporter system in a hormone refractory prostate cancer cell line. […] After two days of incubation, reporter activities were assayed.

T1 sequence (P10275 whole entry, looked up): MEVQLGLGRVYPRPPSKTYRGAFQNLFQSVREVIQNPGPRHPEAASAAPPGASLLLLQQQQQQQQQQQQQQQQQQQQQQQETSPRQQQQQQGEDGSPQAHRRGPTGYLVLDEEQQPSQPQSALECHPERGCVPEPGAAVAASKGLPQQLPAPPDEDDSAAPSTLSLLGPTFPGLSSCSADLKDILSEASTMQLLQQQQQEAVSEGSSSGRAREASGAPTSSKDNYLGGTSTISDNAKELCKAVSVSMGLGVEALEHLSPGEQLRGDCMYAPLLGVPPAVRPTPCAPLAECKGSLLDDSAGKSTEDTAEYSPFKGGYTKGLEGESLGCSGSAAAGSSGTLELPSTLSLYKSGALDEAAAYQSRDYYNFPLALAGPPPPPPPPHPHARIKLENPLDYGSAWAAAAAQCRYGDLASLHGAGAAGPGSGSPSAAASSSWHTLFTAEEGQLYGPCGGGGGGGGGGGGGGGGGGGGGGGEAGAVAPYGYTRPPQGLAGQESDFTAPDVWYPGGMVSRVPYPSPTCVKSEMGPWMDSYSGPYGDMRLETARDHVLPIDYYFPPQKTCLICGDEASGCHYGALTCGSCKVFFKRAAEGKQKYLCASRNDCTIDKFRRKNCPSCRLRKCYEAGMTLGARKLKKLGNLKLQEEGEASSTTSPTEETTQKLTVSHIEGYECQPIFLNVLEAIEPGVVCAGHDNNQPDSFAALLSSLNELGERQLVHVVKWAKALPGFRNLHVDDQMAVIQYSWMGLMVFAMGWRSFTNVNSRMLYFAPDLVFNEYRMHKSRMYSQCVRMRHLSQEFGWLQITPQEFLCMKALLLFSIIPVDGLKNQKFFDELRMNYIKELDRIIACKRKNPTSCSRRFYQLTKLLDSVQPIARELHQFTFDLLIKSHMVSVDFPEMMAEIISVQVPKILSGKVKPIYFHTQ

N#Cc1ccc(N2C(=O)C3(CCC3)N(c3ccc(CCCC(N)=O)cc3)C2=S)cc1C(F)(F)F [RD130, 4-{4-[7-(4-Cyano-3-trifluoromethylphenyl)-8-oxo-6-thioxo-5,7-diaza-spiro[3.4]oct-5-yl]-phenyl}-butyramide]
PSA level, LN/AR cell line, comparison (AR [1]; for a given dose / concentration): less than the PSA level upon exposure to RD128 and RD129 | IC50 (AR [2]): 112 nM

CN(C)C(=O)CCCc1ccc(N2C(=S)N(c3ccc(C#N)c(C(F)(F)F)c3)C(=O)C23CCC3)cc1 [RD169, 4-(4-(7-(4-Cyano-3-(trifluoromethyl)phenyl)-8-oxo-6-thioxo-5,7-diazaspiro[3.4]octan-5-yl)phenyl)-N,N-dimethylbutanamide]
PSA levels of LN-AR cells (FIG. 21) (AR [1]): decreased

N#Cc1ccc(N2C(=O)C3(CCC3)N(c3ccc(/C=C/CO)cc3)C2=S)cc1C(F)(F)F [RD120, 4-{5-[4-(3-hydroxypropenyl)-phenyl]-8-oxo-6-thioxo-5,7-diazaspiro[3.4]oct-7-yl}-2-trifluoromethylbenzonitrile]
IC50 (AR [1]): 114 nM

CS(=O)(=O)N1CCN(c2ccc(N3C(=S)N(c4ccc(C#N)c(C(F)(F)F)c4)C(=O)C34CCC4)cc2)CC1 [RD138, 4-{5-[4-(4-methanesulfonylpiperazin-1-yl)-phenyl]-8-oxo-6-thioxo-5,7-diazaspiro[3.4]oct-7-yl}-2-trifluoromethylbenzonitrile]
Rank order, most active to least active, relative PSA level (FIG. 4) (AR [1]): RD138>RD131>RD37>RD133>RD134>RD137>RD138>RD135>bicalutamide | Decrease in PSA level of LNCaP-AR cells, comparison (FIG. 4) (AR [1]): greater decrease in PSA level of LNCaP-AR cells than RD135 and RD137 | IC50 (AR [2]): 138 nM

N#Cc1ccc(N2C(=O)C3(CCC3)N(c3ccc(N4CCNCC4)cc3)C2=S)cc1C(F)(F)F [RD137, 4-[8-Oxo-5-(4-piperazin-1-yl-phenyl)-6-thioxo-5,7-diazaspiro[3,4]oct-7-yl]-2-trifluoromethylbenzonitrile]
Rank order, most active to least active, relative PSA level (FIG. 4) (AR [1]): RD138>RD131>RD37>RD133>RD134>RD137>RD138>RD135>bicalutamide | Decrease in PSA level of LNCaP-AR cells, comparison (FIG. 4) (AR [1]): greater decrease in PSA level than bicalutamide | IC50 (AR [2]): 718 nM

CC(O)c1ccc(N2C(=S)N(c3ccc(C#N)c(C(F)(F)F)c3)C(=O)C23CCC3)cc1 (stereo not shown) [RD116, 4-{5-[4-(1-hydroxyethyl)-phenyl]-8-oxo-6-thioxo-5,7-diazaspiro[3.4]oct-7-yl}-2-trifluoromethyl-benzonitrile]
IC50 (AR [1]): 187 nM

CC1(C)C(=O)N(c2ccc(C#N)c(C(F)(F)F)c2)C(=S)N1c1ccc(C(F)(F)F)cc1 [RD66, 4-(4,4-dimethyl-5-oxo-2-thioxo-3-(4-trifluoromethylphenyl)imidazolidin-1-yl)-2-trifluoromethylbenzonitrile]
IC50 (AR [1]): 144 nM | IC50 (AR [2]): 143 nM

N#CCCCc1ccc(N2C(=S)N(c3ccc(C#N)c(C(F)(F)F)c3)C(=O)C23CCC3)cc1 [RD170, 4-(5-(4-(3-Cyanopropyl)phenyl)-8-oxo-6-thioxo-5,7-diazaspiro[3.4]octan-7-yl)-2-(trifluoromethyl)benzonitrile]
PSA levels of LN-AR cells (FIG. 21) (AR [1]): decreased

N#Cc1ccc(N2C(=O)C3(CCC3)N(c3ccc(/C=C/C(N)=O)cc3)C2=S)cc1C(F)(F)F [RD119, 3-{4-[7-(4-Cyano-3-trifluoromethyl-phenyl)-8-oxo-6-thioxo-5,7-diaza-spiro[3.4]oct-5-yl]-phenyl}-acrylamide]
IC50 (AR [1]): 113 nM

CNC(=O)CCc1ccc(N2C(=S)N(c3ccc(C#N)c(C(F)(F)F)c3)C(=O)C23CCC3)cc1 [RD134, 3-{4-[7-(4-Cyano-3-trifluoromethylphenyl)-8-oxo-6-thioxo-5,7-diaza-spiro[3.4]oct-5-yl]-phenyl}-N-methyl-propionamide]
Rank order, most active to least active, relative PSA level (FIG. 4) (AR [1]): RD138>RD131>RD37>RD133>RD134>RD137>RD138>RD135>bicalutamide | Decrease in PSA level of LNCaP-AR cells, comparison (FIG. 4) (AR [1]): greater decrease in PSA level of LNCaP-AR cells than RD135 and RD137 | IC50 (AR [2]): 234 nM

CC1(C)C(=O)N(c2ccc(C#N)c(C(F)(F)F)c2)C(=S)N1c1ccccc1C(=O)O [RD65, 2-[3-(4-cyano-3-trifluoromethylphenyl)-5,5-dimethyl-4-oxo-2-thioxoimidazolidin-1-yl]benzoic acid]
IC50 (AR [1]): > 500 nM | IC50 (AR [2]): 523 nM

N#Cc1ccc(N2C(=O)C3(CCC3)N(c3ccc(CCC(=O)NCCO)cc3)C2=S)cc1C(F)(F)F [RD135, 3-{4-[7-(4-cyano-3-trifluoromethylphenyl)-8-oxo-6-thioxo-5,7-diaza-spiro[3.4]oct-5-yl]-phenyl}-N-(2-hydroxyethyl)-propionamide]
Rank order, most active to least active, relative PSA level (FIG. 4) (AR [1]): RD138>RD131>RD37>RD133>RD134>RD137>RD138>RD135>bicalutamide | Decrease in PSA level of LNCaP-AR cells, comparison (FIG. 4) (AR [1]): greater decrease in PSA level than bicalutamide | IC50 (AR [2]): 732 nM

Cc1ccc(N2C(=S)N(c3ccc(C#N)c(C(F)(F)F)c3)C(=O)C23CCCC3)cc1 [RD35, 4-(4-oxo-2-thioxo-1-(4-methylphenyl)-1,3-diazaspiro[4.4]non-3-yl)-2-trifluoromethylbenzonitrile]
IC50 (AR [2]): 147 nM

CC1(C)C(=O)N(c2ccc(C#N)c(C(F)(F)F)c2)C(=S)N1c1ccccc1 [Example 6-2, 4-[3-phenyl-4,4-dimethyl-5-oxo-2-thioxoimidazolidin-1-yl]-2-trifluoromethylbenzonitrile]
IC50 (AR [2]): 149 nM

N#Cc1ccc(N2C(=O)C3(CCC3)N(c3ccc(O)cc3)C2=S)cc1C(F)(F)F [RD58, 4-(8-oxo-6-thioxo-5-(4-hydroxyphenyl)-5,7-diazaspiro[3.4]oct-7-yl)-2-trifluoromethylbenzonitrile]
IC50 (AR [2]): 162 nM

CS(=O)(=O)c1ccc(N2C(=S)N(c3ccc(C#N)c(C(F)(F)F)c3)C(=O)C23CCC3)cc1 [RD145, 4-[5-(4-methanesulfonylphenyl)-8-oxo-6-thioxo-5,7-diazaspiro[3.4]oct-7-yl]-2-trifluoromethylbenzonitrile]
Luciferase activity in LNCaP-AR cells (FIG. 3) (AR [2]): acted to reduce luciferase activity | Rank order, most active to least active, relative luciferase activity (FIG. 3) (AR [2]): RD152>RD153>RD145>RD163>RD161=RD162>bicalutamide

CNC(=O)c1ccc(N2C(=S)N(c3ccc(C#N)c(C(F)(F)F)c3)C(=O)C2(C)C)cc1 [RD153, 4-[3-(4-cyano-3-trifluoromethylphenyl)-5,5-dimethyl-4-oxo-2-thioxo-imidazolidin-1-yl]-N-methylbenzamide]
Luciferase activity in LNCaP-AR cells (FIG. 3) (AR [2]): acted to reduce luciferase activity | Rank order, most active to least active, relative luciferase activity (FIG. 3) (AR [2]): RD152>RD153>RD145>RD163>RD161=RD162>bicalutamide | Luciferase activity, LN/AR cell line (FIG. 29) (AR [2]; for a given concentration, 125 nmol to 1000 nmol): less than the luciferase activity upon exposure to RD155

N#Cc1ccc(N2C(=O)C3(CCC3)N(c3ccc(C=O)cc3)C2=S)cc1C(F)(F)F [RD114, 4-[5-(4-formylphenyl)-8-oxo-6-thioxo-5,7-diazaspiro[3.4]oct-7-yl]-2-trifluoromethyl-benzonitrile]
IC50 (AR [1]): 263 nM

CNC(=O)c1ccc(N2C(=S)N(c3ccc(C#N)c(C(F)(F)F)c3)C(=O)C23CCCC3)cc1F [RD162″, 4-(3-(4-Cyano-3-(trifluoromethyl)phenyl)-4-oxo-2-thioxo-1,3-diazaspiro[4.4]nonan-1-yl)-2-fluoro-N-methylbenzamide]
PSA levels of LN-AR cells (FIG. 21) (AR [1]): decreased

CN1CCC2(CC1)NC(=S)N(c1ccc(C#N)c(C(F)(F)F)c1)C2=O [RD52, 4-(8-methyl-4-oxo-2-thioxo-1,3,8-triazaspiro[4.5]dec-3-yl)-2-trifluoromethylbenzonitrile, reference compound]
IC50 (nM) Reporter (AR [2]; LNCaP-AR, 100 pM R1881, two days, No = did not inhibit AR response reporter): No
